# Like-named read-outs stand apart in the source and are kept apart here.
# Assays:
# [1] = system: THP-1-E cells (HLA-E*01:01) pulsed with peptide; test: IFN-γ ELISpot cross-reactivity screen with HLA-E binding peptides; type: cell-based, human; conditions: 1 nM ImmTAV, THP-1-E cells pulsed with 10 μg/mL peptide, average of 2 HBV-naïve donor PBMC each in triplicate
# [2] = system: THP-1-E cells (HLA-E*01:03) pulsed with peptide; test: as above; type: cell-based, human; conditions: 1 nM ImmTAV, THP-1-E cells pulsed with 10 μg/mL peptide, average of 2 HBV-naïve donor PBMC each in triplicate
# [3] = target: single chain β2m-HLA-E*01:03 on transduced cells
# [4] = target: recombinant human HLA-E*01:03 (heavy chain with β2m), soluble, refolded; test: thermal shift assay (peptide screen)
# [5] = target: recombinant human HLA-E*01:03 (heavy chain with β2m), soluble, refolded; test: thermal shift assay (refolded pHLA-E*01:03 complexes); Tm of the same pHLA-E*01:03 complexes as in the SPR stability assay (Fig. 1c); triplicate
# [6] = target: recombinant human HLA-E*01:03 (heavy chain with β2m), soluble, refolded; test: SPR
# [7] = system: K562 cells transduced with single chain β2m-HLA-E*01:03; test: K562 cell pulsing assay, HLA-E surface upregulation (3D12, flow cytometry); type: cell-based, human
# [8] = system: K562 cells transduced with single chain β2m-HLA-E*01:01; test: as above; type: cell-based, human
# [9] = target: T1, HLA-E*01:03 (Homo sapiens, UniProt P13747); type: binding; conditions: for Tm (°C): Figure 1a source data, 60:1 peptide excess; for Thermal stability Tm (°C): SYPRO Orange, 22-95 °C at 1 °C/min, mean ± SD of triplicates, SD
# [10] = target: T1, HLA-E*01:03; type: binding; set-up: made in house; conditions: refolded complexes
# [11] = target: T1, HLA-E*01:03; test: pHLA-E stability (t1/2) by SPR monitoring ILT2 binding; set-up: made in house; conditions: SPR 25 °C
# [12] = target: single chain β2m-HLA-E*01:01 on transduced cells
substance,measurement,setting,value
VTAPRTVLL [Leader B15],HLA-E*01:01 INF-γ release (SFU ± SD),[1],42.8±13.4 SFU
same,HLA-E*01:03 INF-γ release (SFU ± SD),[2],40±17.4 SFU
VTAPRTLLL [Leader B13],HLA-E*01:01 INF-γ release (SFU ± SD),[1],53±13.4 SFU
same,HLA-E*01:03 INF-γ release (SFU ± SD),[2],56±17.9 SFU
VMAPRTVLL [Leader B7],HLA-E*01:01 INF-γ release (SFU ± SD),[1],43.3±7.8 SFU
same,HLA-E*01:03 INF-γ release (SFU ± SD),[2],48.7±7.3 SFU
HBV Env_(371-379) peptide …,"peptide concentration at which IFN-γ responses (ELISPOT) were detected: peptide titrated on THP-1-E*01:03 cells, PBMC, 1 nM a09b08 ImmTAV",[3],8.7 µg/mL
same,Tm of the peptide-HLA-E complex,[4],47.1 °C
same,Tm of the peptide-HLA-E complex,[5],44 °C
same,t1/2 of the peptide-HLA-E complex,[6],0.112 h
VMAPRALLL [Leader Cw7],HLA-E*01:01 INF-γ release (SFU ± SD),[1],30.3±12.9 SFU
same,HLA-E*01:03 INF-γ release (SFU ± SD),[2],44.1±22.1 SFU
LLPRRGPRL [HCV Core],HLA-E*01:01 INF-γ release (SFU ± SD),[1],61.1±21.8 SFU
same,HLA-E*01:03 INF-γ release (SFU ± SD),[2],60±30.1 SFU
QMRPVSRVL [Hsp60 signal peptide],HLA-E*01:01 INF-γ release (SFU ± SD),[1],43.8±6.36 SFU
same,HLA-E*01:03 INF-γ release (SFU ± SD),[2],41.8±9.9 SFU
VMPPRTLLL [Leader A80],HLA-E*01:01 INF-γ release (SFU ± SD),[1],44.8±8.6 SFU
same,HLA-E*01:03 INF-γ release (SFU ± SD),[2],61.1±14.3 SFU
ALSWRLPLL [Mimetic peptide 1],HLA-E*01:01 INF-γ release (SFU ± SD),[1],61.6±21.8 SFU
same,HLA-E*01:03 INF-γ release (SFU ± SD),[2],54.1±15.6 SFU
VMAPQALLL [Leader Cw16],HLA-E*01:01 INF-γ release (SFU ± SD),[1],33.3±16.4 SFU
same,HLA-E*01:03 INF-γ release (SFU ± SD),[2],49.1±19.2 SFU
RLPAKAPLL [Mtb RLPA],HLA-E*01:01 INF-γ release (SFU ± SD),[1],67.1±12.6 SFU
same,HLA-E*01:03 INF-γ release (SFU ± SD),[2],72.1±12.8 SFU
same,cell surface HLA-E expression after peptide pulsing,[7],increased cell surface HLA-E expression
same,cell surface HLA-E expression after peptide pulsing,[8],increased cell surface HLA-E expression
CIPIPSSWAF [HBV Env peptide 312-321],Tm (°C),[9]; replicate 1,42.2 °C
same,Tm (°C),[9]; replicate 2,41.7 °C
same,Tm (°C),[9]; replicate 3,42.2 °C
same,Thermal stability Tm (°C),[9],42.1±0.3 °C
RWMCLRRFI [HBV Env peptide 236-244],Tm (°C),[9]; replicate 1,37.9 °C
same,Tm (°C),[9]; replicate 2,37.9 °C
same,Tm (°C),[9]; replicate 3,38.4 °C
same,Thermal stability Tm (°C),[9],38.2±0.3 °C
IMAPRTLVL [Leader A34],HLA-E*01:01 INF-γ release (SFU ± SD),[1],55.5±6.8 SFU
same,HLA-E*01:03 INF-γ release (SFU ± SD),[2],54.5±18.9 SFU
VMAPRTLLL [Leader A1],HLA-E*01:01 INF-γ release (SFU ± SD),[1],67.8±14.9 SFU
same,pHLA-E*01:03 Tm,"[10]; thermal shift assay, mean ± SD of triplicates",49 °C
same,pHLA-E*01:03 (Tm °C),[10]; first well of three,49.62 °C
same,pHLA-E*01:03 (Tm °C),[10]; second well of three,48.27 °C
same,pHLA-E*01:03 (Tm °C),[10]; third well of three,48.53 °C
same,HLA-E*01:03 INF-γ release (SFU ± SD),[2],65.6±28.4 SFU
same,pHLA-E*01:03 (t1/2 min),[11]; Run 1,105 min
same,pHLA-E*01:03 (t1/2 min),[11]; Run 2,125 min
same,pHLA-E*01:03 (t1/2 min),[11]; Run 3,127 min
same,pHLA-E*01:03 t1/2,[11]; rounded value,2 h
GMLPVCPLL [HBV Env peptide 265-273],Tm (°C),[9]; replicate 1,45.1 °C
same,Tm (°C),[9]; replicate 2,45.1 °C
same,Tm (°C),[9]; replicate 3,45.5 °C
same,Thermal stability Tm (°C),[9],45.3±0.3 °C
HBV Env_(371-379) (S3N) peptide …,"peptide concentration at which IFN-γ responses (ELISPOT) were detected: peptide titrated on THP-1-E*01:03 cells, PBMC, 1 nM a09b08 ImmTAV",[3],0.2 µg/mL
same,"peptide concentration at which IFN-γ responses (ELISPOT) were detected: peptide titrated on THP-1-E*01:01 cells, PBMC, 1 nM a09b08 ImmTAV",[12],4.9 µg/mL
same,Tm of the peptide-HLA-E complex,[5],47 °C
same,t1/2 of the peptide-HLA-E complex,[6],0.658 h
ILQRFLPLI [Mimetic peptide 2],HLA-E*01:01 INF-γ release (SFU ± SD),[1],60.5±20.8 SFU
same,HLA-E*01:03 INF-γ release (SFU ± SD),[2],48.6±29.1 SFU
Cw3 signal peptide,Tm of the peptide-HLA-E complex,[5],49 °C
same,t1/2 of the peptide-HLA-E complex,[6],2 h
ILPSDAPVL [MTB MmmpL875-83],HLA-E*01:01 INF-γ release (SFU ± SD),[1],52.6±17.39 SFU
same,HLA-E*01:03 INF-γ release (SFU ± SD),[2],54.8±17.4 SFU
FIIFLFILL [HBV Env peptide 243-251],Tm (°C),[9]; replicate 1,38.9 °C
same,Tm (°C),[9]; replicate 2,39.2 °C
same,Tm (°C),[9]; replicate 3,39.5 °C
same,Thermal stability Tm (°C),[9],39.3±0.3 °C
VMAPRTLVL [Leader A2],HLA-E*01:01 INF-γ release (SFU ± SD),[1],50.5±6.8 SFU
same,HLA-E*01:03 INF-γ release (SFU ± SD),[2],64.5±9.8 SFU
VMAPRTLFL [Leader G],HLA-E*01:01 INF-γ release (SFU ± SD),[1],44.8±19.8 SFU
same,HLA-E*01:03 INF-γ release (SFU ± SD),[2],48.1±19.7 SFU
SSWAFARFL [HBV Env peptide 317-325],Tm (°C),[9]; replicate 1,40.7 °C
same,Tm (°C),[9]; replicate 2,40.6 °C
same,Tm (°C),[9]; replicate 3,40.7 °C
same,Thermal stability Tm (°C),[9],40.7±0.1 °C
A1 signal peptide,Tm of the peptide-HLA-E complex,[5],49 °C
same,t1/2 of the peptide-HLA-E complex,[6],2 h

# From PMC11584656, “Viral sequence determines HLA-E-restricted T cell recognition of hepatitis B surface antigen” (Nature Communications, 2024)
